System: panel of haematalogical cancer cell lines
Test: Compound A with BTK inhibitors, 72-hour in vitro proliferation assays
Assay type: cell-based
Details: combination Compound A × listed BTK inhibitor, 72-hour proliferation

SMILES: C=CC(=O)N1CCC([C@@H]2CCNc3c(C(N)=O)c(-c4ccc(Oc5ccccc5)cc4)nn32)CC1 [Zanubrutinib]
- Best CI (HBL-1 cells): 0.05
- Best CI Level (HBL-1 cells): 55
- Bliss Volume (HBL-1 cells): 5.13
- HSA volume (HBL-1 cells): 10.34
- Loewe Volume (HBL-1 cells): 9.75
- Synergy Score (HBL-1 cells): 8.18
- Best CI (OCI-Ly10 cells): 0.50
- Best CI Level (OCI-Ly10 cells): 80
- Bliss Volume (OCI-Ly10 cells): 1.36
- HSA volume (OCI-Ly10 cells): 3.82
- Loewe Volume (OCI-Ly10 cells): 3.55
- Synergy Score (OCI-Ly10 cells): 4.04
- Best CI (SU-DHL-2 cells): 0.86
- Best CI Level (SU-DHL-2 cells): 40
- Bliss Volume (SU-DHL-2 cells): 1.42
- HSA volume (SU-DHL-2 cells): 0.63
- Loewe Volume (SU-DHL-2 cells): 1.23
- Synergy Score (SU-DHL-2 cells): 0.72
- Best CI (SU-DHL-4 cells): 1.06
- Best CI Level (SU-DHL-4 cells): 20
- Bliss Volume (SU-DHL-4 cells): 0.06
- HSA volume (SU-DHL-4 cells): −4.15
- Loewe Volume (SU-DHL-4 cells): −4.24
- Synergy Score (SU-DHL-4 cells): 0.76
- Best CI (SU-DHL-8 cells): 0.52
- Best CI Level (SU-DHL-8 cells): 30
- Bliss Volume (SU-DHL-8 cells): −5.98
- HSA volume (SU-DHL-8 cells): −5.32
- Loewe Volume (SU-DHL-8 cells): −5.81
- Synergy Score (SU-DHL-8 cells): 0.66
- Best CI (TMD8 cells): 0.07
- Best CI Level (TMD8 cells): 80
- Bliss Volume (TMD8 cells): 2.31
- HSA volume (TMD8 cells): 4.24
- Loewe Volume (TMD8 cells): 3.33
- Synergy Score (TMD8 cells): 3.91
- Best CI (U-2932 cells): 0.54
- Best CI Level (U-2932 cells): 65
- Bliss Volume (U-2932 cells): 5.21
- HSA volume (U-2932 cells): 7.71
- Loewe Volume (U-2932 cells): 7.67
- Synergy Score (U-2932 cells): 4.92

SMILES: CC#CC(=O)N1CC[C@@H](n2c(=O)n(-c3ccc(Oc4ccccc4)cc3)c3c(N)ncnc32)C1 [Tirabrutinib]
- Best CI (HBL-1 cells): 0.06
- Best CI Level (HBL-1 cells): 60
- Bliss Volume (HBL-1 cells): 3.09
- HSA volume (HBL-1 cells): 8.94
- Loewe Volume (HBL-1 cells): 8.17
- Synergy Score (HBL-1 cells): 7.02
- Best CI (OCI-Ly10 cells): 0.63
- Best CI Level (OCI-Ly10 cells): 80
- Bliss Volume (OCI-Ly10 cells): 0.21
- HSA volume (OCI-Ly10 cells): 3.22
- Loewe Volume (OCI-Ly10 cells): 1.63
- Synergy Score (OCI-Ly10 cells): 2.72
- Best CI (SU-DHL-2 cells): 0.42
- Best CI Level (SU-DHL-2 cells): 20
- Bliss Volume (SU-DHL-2 cells): 0.39
- HSA volume (SU-DHL-2 cells): −0.97
- Loewe Volume (SU-DHL-2 cells): 1.23
- Synergy Score (SU-DHL-2 cells): 0.98
- Best CI (SU-DHL-4 cells): 0.84
- Best CI Level (SU-DHL-4 cells): 20
- Bliss Volume (SU-DHL-4 cells): 1.52
- HSA volume (SU-DHL-4 cells): −2.97
- Loewe Volume (SU-DHL-4 cells): −0.81
- Synergy Score (SU-DHL-4 cells): 1.10
- Best CI (SU-DHL-8 cells): 0.45
- Best CI Level (SU-DHL-8 cells): 20
- Bliss Volume (SU-DHL-8 cells): 4.13
- HSA volume (SU-DHL-8 cells): −6.01
- Loewe Volume (SU-DHL-8 cells): −3.72
- Synergy Score (SU-DHL-8 cells): 0.60
- Best CI (TMD8 cells): 0.87
- Best CI Level (TMD8 cells): 20
- Bliss Volume (TMD8 cells): 1.28
- HSA volume (TMD8 cells): 3.05
- Loewe Volume (TMD8 cells): 1.96
- Synergy Score (TMD8 cells): 2.92
- Best CI (U-2932 cells): 0.62
- Best CI Level (U-2932 cells): 65
- Bliss Volume (U-2932 cells): 1.92
- HSA volume (U-2932 cells): 4.85
- Loewe Volume (U-2932 cells): 4.66
- Synergy Score (U-2932 cells): 3.69

SMILES: CC#CC(=O)N1CCC[C@H]1c1nc(-c2ccc(C(=O)Nc3ccccn3)cc2)c2c(N)nccn12 [Acalabrutinib]
- Best CI (HBL-1 cells): 0.09
- Best CI Level (HBL-1 cells): 55
- Bliss Volume (HBL-1 cells): 4.86
- HSA volume (HBL-1 cells): 9.39
- Loewe Volume (HBL-1 cells): 9.09
- Synergy Score (HBL-1 cells): 7.28
- Best CI (OCI-Ly10 cells): 0.69
- Best CI Level (OCI-Ly10 cells): 80
- Bliss Volume (OCI-Ly10 cells): −1.82
- HSA volume (OCI-Ly10 cells): 0.62
- Loewe Volume (OCI-Ly10 cells): −0.84
- Synergy Score (OCI-Ly10 cells): 1.59
- Best CI (SU-DHL-2 cells): 0.39
- Best CI Level (SU-DHL-2 cells): 20
- Bliss Volume (SU-DHL-2 cells): 1.10
- HSA volume (SU-DHL-2 cells): 1.30
- Loewe Volume (SU-DHL-2 cells): 2.29
- Synergy Score (SU-DHL-2 cells): 1.76
- Best CI (SU-DHL-4 cells): 0.90
- Best CI Level (SU-DHL-4 cells): 80
- Bliss Volume (SU-DHL-4 cells): 0.66
- HSA volume (SU-DHL-4 cells): −3.54
- Loewe Volume (SU-DHL-4 cells): −2.10
- Synergy Score (SU-DHL-4 cells): 1.02
- Best CI (SU-DHL-8 cells): 0.79
- Best CI Level (SU-DHL-8 cells): 20
- Bliss Volume (SU-DHL-8 cells): 3.28
- HSA volume (SU-DHL-8 cells): −5.31
- Loewe Volume (SU-DHL-8 cells): −3.08
- Synergy Score (SU-DHL-8 cells): 0.52
- Best CI (TMD8 cells): 0.09
- Best CI Level (TMD8 cells): 80
- Bliss Volume (TMD8 cells): 2.07
- HSA volume (TMD8 cells): 3.89
- Loewe Volume (TMD8 cells): 2.90
- Synergy Score (TMD8 cells): 3.60
- Best CI (U-2932 cells): 0.49
- Best CI Level (U-2932 cells): 65
- Bliss Volume (U-2932 cells): 5.67
- HSA volume (U-2932 cells): 7.07
- Loewe Volume (U-2932 cells): 7.67
- Synergy Score (U-2932 cells): 4.74
